Columns and labels:
HeLa [1] = test: Antiproliferative activity against human HeLa cells assessed as reduction in cell viability by MTT assay; format: functional, cell-based
MCF7 [2] = test: Antiproliferative activity against human MCF7 cells assessed as reduction in cell viability by MTT assay; format: functional, cell-based
HCT-116 [3] = test: Antiproliferative activity against human HCT-116 cells assessed as reduction in cell viability by MTT assay; format: functional, cell-based
HT-29 [4] = test: Antiproliferative activity against human HT-29 cells assessed as reduction in cell viability by MTT assay; format: functional, cell-based
HCT-116 [5] = test: Induction of apoptosis in human HCT-116 cells assessed as early apoptotic cells at 5 uM incubated for 24 hrs by Annexin V-FITC and propidium iodide staining based flow cytometry analysis (reference value: 6.19 %); format: functional
HT-29 [6] = test: Potency index, ratio of 5-FU IC50 to test compound IC50 for antiproliferative activity against human HT-29 cells by MTT assay; format: functional
HCT-116 [7] = test: Cell cycle arrest in human HCT-116 cells assessed as accumulation at G2M phase at 10 uM measured after 24 hrs by propidium iodide staining based flow cytometry analysis (reference value: 30.39 %); format: functional
HCT-116 [8] = test: Cell cycle arrest in human HCT-116 cells assessed as accumulation at S phase at 5 uM measured after 24 hrs by propidium iodide staining based flow cytometry analysis (reference value: 39%); format: functional
HCT-116 [9] = test: Cell cycle arrest in human HCT-116 cells assessed as accumulation at G2M phase at 2.5 uM measured after 24 hrs by propidium iodide staining based flow cytometry analysis (reference value: 30.39 %); format: functional
HCT-116 [10] = test: Induction of apoptosis in human HCT-116 cells assessed as viable cells at 2.5 uM incubated for 24 hrs by Annexin V-FITC and propidium iodide staining based flow cytometry analysis (reference value: 92.9 %); format: functional; details: read-out: Activity
HCT-116 [11] = test: Cell cycle arrest in human HCT-116 cells assessed as accumulation at G2M phase at 5 uM measured after 24 hrs by propidium iodide staining based flow cytometry analysis (reference value: 30.39 %); format: functional
HCT-116 [12] = test: Induction of apoptosis in human HCT-116 cells assessed as late apoptotic cells at 2.5 uM incubated for 24 hrs by Annexin V-FITC and propidium iodide staining based flow cytometry analysis (reference value: 0.899 %); format: functional
HCT-116 [13] = test: Cell cycle arrest in human HCT-116 cells assessed as accumulation at S phase at 10 uM measured after 24 hrs by propidium iodide staining based flow cytometry analysis (reference value: 39%); format: functional
HCT-116 [14] = test: Cell cycle arrest in human HCT-116 cells assessed as accumulation at S phase at 2.5 uM measured after 24 hrs by propidium iodide staining based flow cytometry analysis (reference value: 39%); format: functional
HeLa [15] = test: Potency index, ratio of 5-FU IC50 to test compound IC50 for antiproliferative activity against human HeLa cells by MTT assay; format: functional
HCT-116 [16] = test: Cell cycle arrest in human HCT-116 cells assessed as accumulation at G0/G1 phase at 10 uM measured after 24 hrs by propidium iodide staining based flow cytometry analysis (reference value: 30.60 %); format: functional
HCT-116 [17] = test: Potency index, ratio of 5-FU IC50 to test compound IC50 for antiproliferative activity against human HCT-116 cells by MTT assay; format: functional
HCT-116 [18] = test: Induction of apoptosis in human HCT-116 cells assessed as early apoptotic cells at 10 uM incubated for 24 hrs by Annexin V-FITC and propidium iodide staining based flow cytometry analysis (reference value: 6.19 %); format: functional
HCT-116 [19] = test: Induction of apoptosis in human HCT-116 cells assessed as necrotic cells at 5 uM incubated for 24 hrs by Annexin V-FITC and propidium iodide staining based flow cytometry analysis (reference value: 0.019 %); format: functional
HCT-116 [20] = test: Induction of apoptosis in human HCT-116 cells assessed as viable cells at 10 uM incubated for 24 hrs by Annexin V-FITC and propidium iodide staining based flow cytometry analysis (reference value: 92.9 %); format: functional; details: read-out: Activity
HCT-116 [21] = test: Induction of apoptosis in human HCT-116 cells assessed as early apoptotic cells at 2.5 uM incubated for 24 hrs by Annexin V-FITC and propidium iodide staining based flow cytometry analysis (reference value: 6.19 %); format: functional
HCT-116 [22] = test: Induction of apoptosis in human HCT-116 cells assessed as necrotic cells at 10 uM incubated for 24 hrs by Annexin V-FITC and propidium iodide staining based flow cytometry analysis (reference value: 0.019 %); format: functional
MCF7 [23] = test: Potency index, ratio of 5-FU IC50 to test compound IC50 for antiproliferative activity against human MCF7 cells by MTT assay; format: functional
HCT-116 [24] = test: Induction of apoptosis in human HCT-116 cells assessed as late apoptotic cells at 10 uM incubated for 24 hrs by annexin V-FITC and propidium iodide staining based flow cytometry analysis (reference value: 0.899 %); format: functional
HCT-116 [25] = test: Cell cycle arrest in human HCT-116 cells assessed as accumulation at G0/G1 phase at 5 uM measured after 24 hrs by propidium iodide staining based flow cytometry analysis (reference value: 30.60 %); format: functional
HCT-116 [26] = test: Induction of apoptosis in human HCT-116 cells assessed as viable cells at 5 uM incubated for 24 hrs by Annexin V-FITC and propidium iodide staining based flow cytometry analysis (reference value: 92.9 %); format: functional; details: read-out: Activity
HCT-116 [27] = test: Induction of apoptosis in human HCT-116 cells assessed as necrotic cells at 2.5 uM incubated for 24 hrs by Annexin V-FITC and propidium iodide staining based flow cytometry analysis (reference value: 0.019 %); format: functional
HCT-116 [28] = test: Cell cycle arrest in human HCT-116 cells assessed as accumulation at G0/G1 phase at 2.5 uM measured after 24 hrs by propidium iodide staining based flow cytometry analysis (reference value: 30.60 %); format: functional
HCT-116 [29] = test: Induction of apoptosis in human HCT-116 cells assessed as late apoptotic cells at 5 uM incubated for 24 hrs by Annexin V-FITC and propidium iodide staining based flow cytometry analysis (reference value: 0.899 %); format: functional

CC(C)Nc1nc(Nc2ccc(N3CCN(C)CC3)cc2)ncc1/N=C/c1ccccc1
IC50 (HeLa [1]): > 100 µM
IC50 (MCF7 [2]): > 100 µM
IC50 (HCT-116 [3]): > 100 µM
IC50 (HT-29 [4]): 12.1 µM

CC(C)Nc1nc(Nc2ccc(N3CCN(C)CC3)cc2)ncc1/N=C/c1cccs1
IC50 (HeLa [1]): 77.1 µM
IC50 (MCF7 [2]): 91 µM
IC50 (HCT-116 [3]): > 100 µM
IC50 (HT-29 [4]): > 100 µM

CC(C)Nc1nc(Nc2ccc(S(N)(=O)=O)cc2)ncc1/N=C/c1ccccc1
IC50 (HeLa [1]): > 100 µM
IC50 (MCF7 [2]): > 100 µM
IC50 (HCT-116 [3]): > 100 µM
IC50 (HT-29 [4]): 98.2 µM

CC(C)Nc1nc(Nc2ccc(N3CCN(C)CC3)cc2)ncc1/N=C/c1ccc(C(F)(F)F)cc1
IC50 (HeLa [1]): > 100 µM
IC50 (MCF7 [2]): > 100 µM
IC50 (HCT-116 [3]): 42.2 µM
IC50 (HT-29 [4]): > 100 µM

CCOC(=O)/C=N/c1cnc(Nc2ccc(S(N)(=O)=O)cc2)nc1NC(C)C
IC50 (HeLa [1]): 83.3 µM
IC50 (MCF7 [2]): 58.8 µM
IC50 (HCT-116 [3]): 49.1 µM
IC50 (HT-29 [4]): > 100 µM

CN1CCN(c2ccc(Nc3ncc(/N=C/c4cccs4)c(NC4CCCC4)n3)cc2)CC1
IC50 (HeLa [1]): 25.7 µM
IC50 (MCF7 [2]): 33.9 µM
IC50 (HCT-116 [3]): 18.9 µM
IC50 (HT-29 [4]): 21.7 µM

CC(C)Nc1nc(Nc2ccc(N3CCOCC3)cc2)ncc1/N=C/c1ccccc1
IC50 (HeLa [1]): > 100 µM
IC50 (MCF7 [2]): > 100 µM
IC50 (HCT-116 [3]): > 100 µM
IC50 (HT-29 [4]): > 100 µM

CCOC(=O)/C=N/c1cnc(Nc2ccc(S(N)(=O)=O)cc2)nc1NC1CC1
IC50 (HeLa [1]): > 100 µM
IC50 (MCF7 [2]): > 100 µM
IC50 (HCT-116 [3]): > 100 µM
IC50 (HT-29 [4]): > 100 µM

C(=N\c1cnc(Nc2ccc(N3CCOCC3)cc2)nc1NC1CCCC1)/c1ccccc1
IC50 (HeLa [1]): > 100 µM
IC50 (MCF7 [2]): > 100 µM
IC50 (HCT-116 [3]): > 100 µM
IC50 (HT-29 [4]): 67.6 µM

CCOC(=O)/C=N/c1cnc(Nc2ccc(N3CCN(C)CC3)cc2)nc1NC(C)C
IC50 (HeLa [1]): 11.5 µM
IC50 (MCF7 [2]): 12.3 µM
IC50 (HCT-116 [3]): 13.6 µM
IC50 (HT-29 [4]): 7.59 µM

CC(C)Nc1nc(Nc2ccc(S(N)(=O)=O)cc2)ncc1/N=C/c1cccs1
IC50 (HeLa [1]): > 100 µM
IC50 (MCF7 [2]): 50.2 µM
IC50 (HCT-116 [3]): 82.1 µM
IC50 (HT-29 [4]): > 100 µM

CCOC(=O)/C=N/c1cnc(Nc2ccc(N3CCOCC3)cc2)nc1NC(C)C
IC50 (HeLa [1]): 27.7 µM
IC50 (MCF7 [2]): 15.2 µM
IC50 (HCT-116 [3]): 23.7 µM
IC50 (HT-29 [4]): 19.6 µM

CCOC(=O)/C=N/c1cnc(Nc2ccc(N3CCOCC3)cc2)nc1NC1CCCC1
Activity (HCT-116 [5]): 24.2%
Ratio IC50 (HT-29 [6]): 2.9
Activity (HCT-116 [7]): 29.98%
Activity (HCT-116 [8]): 30.52%
Activity (HCT-116 [9]): 27.6%
viability at 2.5 µM (HCT-116 [10]): 80.3%
Activity (HCT-116 [11]): 33.02%
Activity (HCT-116 [12]): 8.86%
Activity (HCT-116 [13]): 28.47%
IC50 (HeLa [1]): 14.2 µM
Activity (HCT-116 [14]): 37.77%
IC50 (MCF7 [2]): 8.84 µM
Ratio IC50 (HeLa [15]): 3
Activity (HCT-116 [16]): 41.55%
IC50 (HCT-116 [3]): 4.93 µM
Ratio IC50 (HCT-116 [17]): 4.9
Activity (HCT-116 [18]): 28%
Activity (HCT-116 [19]): 0.62%
viability at 10 µM (HCT-116 [20]): 44.5%
Activity (HCT-116 [21]): 10.6%
IC50 (HT-29 [4]): 5.57 µM
Activity (HCT-116 [22]): 3.09%
Ratio IC50 (MCF7 [23]): 2.1
Activity (HCT-116 [24]): 24.4%
Activity (HCT-116 [25]): 36.46%
viability at 5 µM (HCT-116 [26]): 63.5%
Activity (HCT-116 [27]): 0.195%
Activity (HCT-116 [28]): 34.63%
Activity (HCT-116 [29]): 11.7%

From ChEMBL document CHEMBL4811309, “Design, synthesis and antiproliferative activity of novel 2,4-diamino-5-methyleneaminopyrimidine derivatives as potential anticancer agents” (Bioorg Med Chem Lett, 2021)
